Data reported in patent US20230072854A1, “PARAXANTHINE-BASED BIOACTIVE COMPOSITION AND METHOD OF USE THEREOF” (Ingenious Ingredients, LP, priority 2020, published 2023).

Assay: Toxicity, LD50
Conditions: in vivo

## Cn1cnc2c1c(=O)[nH]c(=O)n2C [theobromine, reference compound]
  LD50: 1260 mg/kg
